Source: ChEMBL document CHEMBL1129840, “The synthesis and SAR of new 4-(N-alkyl-N-phenyl)amino-6,7-dimethoxyquinazolines and 4-(N-alkyl-N-phenyl)aminopyrazolo[3,4-d]pyrimidines, inhibitors of CSF-1R tyrosine kinase activity” (Bioorg Med Chem Lett, 1997)

Experiments:
[1] = molecular target: Epidermal growth factor receptor (Homo sapiens, UniProt P00533); assay: Antagonism towards Epidermal growth factor receptor
[2] = molecular target: Macrophage colony-stimulating factor 1 receptor (Homo sapiens, UniProt P07333); assay: Antagonism towards Colony stimulating factor 1 receptor (CSF-1R); assay type: functional
[3] = molecular target: Platelet-derived growth factor receptor (Homo sapiens, UniProt P09619+P16234); assay: Inhibition of platelet-derived growth factor receptor (PDGF-R)
[4] = molecular target: Tyrosine-protein kinase Lck (Homo sapiens, UniProt P06239); assay: Inhibition of p56 lck tyrosine kinase (inactive)
Chain of Tyrosine-protein kinase Lck (P06239 whole entry): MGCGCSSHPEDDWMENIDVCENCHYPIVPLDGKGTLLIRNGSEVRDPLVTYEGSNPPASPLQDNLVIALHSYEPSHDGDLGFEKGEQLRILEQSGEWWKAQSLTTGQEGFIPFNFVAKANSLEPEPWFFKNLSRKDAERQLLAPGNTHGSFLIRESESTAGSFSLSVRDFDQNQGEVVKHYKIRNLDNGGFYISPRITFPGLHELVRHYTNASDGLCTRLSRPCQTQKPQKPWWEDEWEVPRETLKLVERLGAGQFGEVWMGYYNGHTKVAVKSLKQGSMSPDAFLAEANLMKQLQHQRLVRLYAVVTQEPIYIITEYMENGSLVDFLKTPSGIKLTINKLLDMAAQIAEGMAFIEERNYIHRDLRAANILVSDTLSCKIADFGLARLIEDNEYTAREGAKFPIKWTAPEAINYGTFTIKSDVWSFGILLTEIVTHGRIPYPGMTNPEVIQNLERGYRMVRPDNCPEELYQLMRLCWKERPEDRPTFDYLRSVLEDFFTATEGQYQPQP

Chain of Epidermal growth factor receptor (P00533 whole entry): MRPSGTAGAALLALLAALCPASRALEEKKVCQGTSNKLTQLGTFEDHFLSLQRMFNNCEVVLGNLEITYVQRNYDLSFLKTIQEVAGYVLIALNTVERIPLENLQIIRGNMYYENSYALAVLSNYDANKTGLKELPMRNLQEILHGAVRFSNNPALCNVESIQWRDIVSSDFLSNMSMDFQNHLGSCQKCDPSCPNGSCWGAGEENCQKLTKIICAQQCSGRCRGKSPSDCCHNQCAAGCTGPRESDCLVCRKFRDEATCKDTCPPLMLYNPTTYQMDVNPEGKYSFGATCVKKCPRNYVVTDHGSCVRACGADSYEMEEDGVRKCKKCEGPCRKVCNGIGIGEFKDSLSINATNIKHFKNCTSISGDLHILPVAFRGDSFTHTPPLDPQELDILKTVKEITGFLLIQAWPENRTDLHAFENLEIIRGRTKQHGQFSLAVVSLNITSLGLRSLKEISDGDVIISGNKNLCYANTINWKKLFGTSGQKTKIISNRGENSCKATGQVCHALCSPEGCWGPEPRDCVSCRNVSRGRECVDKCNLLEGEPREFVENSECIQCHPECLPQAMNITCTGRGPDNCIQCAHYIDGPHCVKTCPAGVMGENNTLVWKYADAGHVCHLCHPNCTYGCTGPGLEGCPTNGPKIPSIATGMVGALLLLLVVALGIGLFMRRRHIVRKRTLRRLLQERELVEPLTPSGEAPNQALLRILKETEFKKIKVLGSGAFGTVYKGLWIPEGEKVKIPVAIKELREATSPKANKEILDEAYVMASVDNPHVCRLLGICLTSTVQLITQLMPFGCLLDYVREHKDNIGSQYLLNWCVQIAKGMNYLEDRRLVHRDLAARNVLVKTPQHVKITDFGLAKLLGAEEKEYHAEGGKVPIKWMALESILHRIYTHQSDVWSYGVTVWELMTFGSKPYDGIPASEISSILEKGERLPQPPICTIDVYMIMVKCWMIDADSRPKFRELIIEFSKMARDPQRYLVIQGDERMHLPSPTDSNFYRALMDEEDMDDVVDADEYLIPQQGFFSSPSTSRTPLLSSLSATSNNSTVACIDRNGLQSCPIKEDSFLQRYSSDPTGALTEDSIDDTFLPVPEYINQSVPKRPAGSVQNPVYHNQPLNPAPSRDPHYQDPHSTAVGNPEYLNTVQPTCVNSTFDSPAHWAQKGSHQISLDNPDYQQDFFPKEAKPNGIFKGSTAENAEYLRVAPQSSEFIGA
Chain of Macrophage colony-stimulating factor 1 receptor (P07333 whole entry): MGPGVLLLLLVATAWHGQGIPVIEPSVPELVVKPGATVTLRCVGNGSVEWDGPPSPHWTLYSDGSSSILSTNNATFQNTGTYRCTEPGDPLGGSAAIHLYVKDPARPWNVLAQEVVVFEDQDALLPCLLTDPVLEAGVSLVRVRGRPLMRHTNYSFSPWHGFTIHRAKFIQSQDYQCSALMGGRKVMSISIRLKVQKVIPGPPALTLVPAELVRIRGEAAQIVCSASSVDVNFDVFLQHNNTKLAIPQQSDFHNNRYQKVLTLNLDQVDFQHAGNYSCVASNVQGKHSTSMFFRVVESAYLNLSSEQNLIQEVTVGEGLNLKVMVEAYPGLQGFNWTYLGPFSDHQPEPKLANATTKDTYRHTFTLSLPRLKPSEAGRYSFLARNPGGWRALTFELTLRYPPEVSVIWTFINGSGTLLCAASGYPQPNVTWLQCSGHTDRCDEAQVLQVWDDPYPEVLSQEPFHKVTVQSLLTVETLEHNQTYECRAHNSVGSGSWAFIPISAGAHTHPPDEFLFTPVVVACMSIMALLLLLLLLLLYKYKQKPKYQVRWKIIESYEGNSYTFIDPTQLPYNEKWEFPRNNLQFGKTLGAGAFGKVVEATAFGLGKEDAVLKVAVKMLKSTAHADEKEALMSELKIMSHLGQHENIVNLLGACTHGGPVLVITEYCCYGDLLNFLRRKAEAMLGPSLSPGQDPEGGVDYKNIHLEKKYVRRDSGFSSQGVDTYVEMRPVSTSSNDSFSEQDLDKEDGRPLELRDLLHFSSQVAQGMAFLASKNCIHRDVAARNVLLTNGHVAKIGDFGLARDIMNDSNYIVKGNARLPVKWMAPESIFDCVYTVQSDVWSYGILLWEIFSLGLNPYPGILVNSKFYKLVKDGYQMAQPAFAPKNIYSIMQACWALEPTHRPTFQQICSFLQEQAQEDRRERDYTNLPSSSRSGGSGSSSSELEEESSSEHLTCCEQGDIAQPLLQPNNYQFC

Compound	IC50 [1] [µM]	IC50 [2] [nM]	IC50 [3] [µM]	IC50 [4] [µM]
Cc1cc(C)c2ncnc(N(C)c3ccccc3)c2c1	> 20	> 20000	–	–
CN(c1ccccc1)c1ncnc2ccc(Cl)cc12	> 20	5000	–	–
COc1cc2nc(Cl)nc(N(C)c3ccccc3)c2cc1OC	> 50	> 50000	–	–
COc1nc(N(C)c2ccccc2)c2cc(OC)c(OC)cc2n1	> 50	> 50000	–	–
Cc1cccc(N(C)c2ncnc3n[nH]cc23)c1	> 50	180	–	–
CN(c1ccccc1)c1ncnc2ccccc12	> 50	> 20000	–	–
CN(c1ccccc1)c1ncnc2[nH]cnc12	2	4000	–	–
COc1cc2ncnc(N(C)c3cccc(C(F)(F)F)c3)c2cc1OC	30	500	–	–
CN(c1ccccc1)c1[nH]cnc2nncc1-2	> 50	600	–	–
COc1cc2ncnc(Nc3ccccc3)c2cc1OC	0.05	> 50000	–	–
COc1ccc2ncnc(N(C)c3ccccc3)c2c1	> 20	20000	–	–
COc1cc2ncnc(N(C)c3ccc(Cl)cc3)c2cc1OC	3	2100	–	–
COc1cc2ncnc(N(C)c3ccccc3)c2cc1OC	4	–	15	> 100
COc1cc2ncnc(Nc3cc(OC)c(OC)c(OC)c3)c2cc1OC	–	> 100000	20	–
COc1cc2c(N(C)c3ccccc3)ncnc2c(OC)c1OC	> 20	> 20000	–	–
COc1cc2ncnc(N(C)c3ccc(C)cc3)c2cc1OC	4	2000	–	–
COc1cc2ncnc(N3CCc4ccccc43)c2cc1OC	3	5000	–	–
COc1cc2ncnc(N(C)c3cccc(C)c3)c2cc1OC	12	180	–	–
COc1cc2ncnc(N(C)c3cccc(Cl)c3)c2cc1OC	0.1	1500	–	–
CCN(c1ccccc1)c1ncnc2cc(OC)c(OC)cc12	5.5	–	–	–
Cc1cccc(N(C)c2ncnc3cc(C)c(C)cc23)c1	6.5	1600	–	–
